In PubChem BioAssay AID330 (DTP/NCI, 2004):
“And” between values parts separate entries of the source, which are not always exact repeats. Identical values can stand only once. Inconclusive results and toxic doses are left out.

System: P388 leukemia ip, CD2F1 mice, survival T/C
Assay: NCI In Vivo Anticancer Drug Screen. Data for tumor model P388 Leukemia (intraperitoneal) in CD2F1 (CDF1) mice
Details: endpoint: median survival time, higher = longer survival
Procedure, shortened: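 Mice carrying the transplanted tumor received test compound or vehicle. Survival was recorded in each group, and the value is the treated-group measurement divided by that of the vehicle-treated control group.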

[1] = dose: 60.0 mg/kg/injection, schedule: Q01DX005 (ip), vehicle: saline with Tween-80
[2] = dose: 120.0 mg/kg/injection, schedule: Q01DX005 (ip), vehicle: saline with Tween-80
[3] = dose: 240.0 mg/kg/injection, schedule: Q01DX005 (ip), vehicle: saline with Tween-80
[4] = dose: 25.0 mg/kg/injection, schedule: Q01DX005 (ip), vehicle: Klucel (hydroxypropylcellulose) (HPC)
[5] = dose: 50.0 mg/kg/injection, schedule: Q01DX005 (ip), vehicle: Klucel (hydroxypropylcellulose) (HPC)
[6] = dose: 100.0 mg/kg/injection, schedule: Q01DX005 (ip), vehicle: Klucel (hydroxypropylcellulose) (HPC)
[7] = dose: 200.0 mg/kg/injection, schedule: Q01DX005 (ip), vehicle: Klucel (hydroxypropylcellulose) (HPC)
[8] = dose: 12.5 mg/kg/injection, schedule: Q01DX009 (ip), vehicle: other
[9] = dose: 25.0 mg/kg/injection, schedule: Q01DX009 (ip), vehicle: other
[10] = dose: 50.0 mg/kg/injection, schedule: Q01DX009 (ip), vehicle: other
[11] = dose: 100.0 mg/kg/injection, schedule: Q01DX009 (ip), vehicle: other
[12] = dose: 50.0 mg/kg/injection, schedule: Q01DX009 (ip), vehicle: saline
[13] = dose: 100.0 mg/kg/injection, schedule: Q01DX009 (ip), vehicle: saline
[14] = dose: 50.0 mg/kg/injection, schedule: Q01DX005 (ip), vehicle: saline with Tween-80
[15] = dose: 100.0 mg/kg/injection, schedule: Q01DX005 (ip), vehicle: saline with Tween-80
[16] = dose: 200.0 mg/kg/injection, schedule: Q01DX005 (ip), vehicle: saline with Tween-80
[17] = dose: 200.0 mg/kg/injection, schedule: Q01DX009 (ip), vehicle: saline

O=c1cc2cccccc-2o1
T/C (dose: 100.0 mg/kg/injection, schedule: Q01DX001 (ip), vehicle: Klucel (hydroxypropylcellulose) (HPC)): 101 % of control
T/C (dose: 200.0 mg/kg/injection, schedule: Q01DX001 (ip), vehicle: Klucel (hydroxypropylcellulose) (HPC)): 103 % of control

CCOCCOCCOC(C)Oc1ccccc1OC (stereo not drawn)
T/C [1]: 100 % of control
T/C [2]: 104 % of control
T/C [3]: 106 % of control

[Cu+2].[O-]c1ccccc1C=NCC(O)CN=Cc1ccccc1[O-] (stereo not drawn)
T/C (dose: 3.75 mg/kg/injection, schedule: Q01DX005 (ip), vehicle: saline with Tween-80): 97 % of control
T/C (dose: 7.5 mg/kg/injection, schedule: Q01DX005 (ip), vehicle: saline with Tween-80): 104 % of control

C[C@]12CCC(=O)C(O)=C1CC[C@H]1[C@@H]3CCC(=O)[C@@]3(C)CC[C@@]12O
T/C (dose: 12.5 mg/kg/injection, schedule: Q01DX005 (ip), vehicle: Klucel (hydroxypropylcellulose) (HPC)): 101 % of control
T/C [4]: 109 % of control
T/C [5]: 104 % of control
T/C [6]: 104 % of control
T/C [7]: 96 % of control

NC(CCS(=O)(=O)NCc1ccc(S(=O)(=O)F)cc1)C(=O)O (stereo not drawn)
T/C [8]: 104 % of control
T/C [9]: 103 % of control
T/C [10]: 100 % of control
T/C [11]: 96 % of control
T/C (dose: 200.0 mg/kg/injection, schedule: Q01DX009 (ip), vehicle: other): 88 % of control

CC(=O)OC1OC(COS(C)(=O)=O)C(OC(C)=O)C(OS(C)(=O)=O)C1OC(C)=O (stereo not drawn)
T/C [12]: 92 % of control
T/C [13]: 118 % of control
T/C (dose: 400.0 mg/kg/injection, schedule: Q01DX009 (ip), vehicle: saline): 88 % of control

Cc1nc(Cl)c(C)c(C(=O)O)n1
T/C (dose: 6.25 mg/kg/injection, schedule: Q01DX009 (ip), vehicle: other): 117 % of control
T/C [8]: 114 % of control
T/C [9]: 107 % of control
T/C [10]: 99 % of control
T/C [11]: 98 % of control

Oc1cc2c(cc1C(c1ccc3c(c1)OCO3)N1CCN(C(c3ccc4c(c3)OCO4)c3cc4c(cc3O)OCO4)CC1)OCO2 (stereo not drawn)
T/C [1]: 89 % of control
T/C [2]: 87 % of control
T/C [3]: 89 % of control

O=C(NC(Cc1ccc(I)cc1)C(=O)O)c1ccc(Cl)cc1 (stereo not drawn)
T/C [5]: 95 % of control
T/C [6]: 100 % of control
T/C [7]: 108 % of control

CCC1CN2CCc3cc(OC)c(OC)cc3C2C(C2(O)C(=O)Nc3ccccc32)C1=O (stereo not drawn)
T/C (dose: 50.0 mg/kg/injection, schedule: Q01DX009 (ip), vehicle: Klucel (hydroxypropylcellulose) (HPC)): 99 % of control
T/C (dose: 100.0 mg/kg/injection, schedule: Q01DX009 (ip), vehicle: Klucel (hydroxypropylcellulose) (HPC)): 100 % of control
T/C (dose: 200.0 mg/kg/injection, schedule: Q01DX009 (ip), vehicle: Klucel (hydroxypropylcellulose) (HPC)): 100 % of control

COc1ccc(C2(O)c3ccccc3C(=O)c3ccccc32)cc1
T/C [5]: 95 % of control
T/C [6]: 96 % of control
T/C [7]: 107 % of control

c1ccc(C(=C2CCCCC2)c2ccccc2)cc1
T/C [14]: 100 % of control
T/C [15]: 100 % of control
T/C [16]: 98 % of control

COc1ccc2c(c1OC)C(C(Cl)(Cl)Cl)N1CCc3cc4c(cc3C1=C2C=O)OCO4 (stereo not drawn)
T/C [14]: 98 % of control
T/C [15]: 90 % of control
T/C [16]: 90 % of control

NC(Cc1ccc(OC(c2ccccc2)(c2ccccc2)c2ccccc2)cc1)C(=O)O (stereo not drawn)
T/C [12]: 101 % of control
T/C [13]: 96 % of control
T/C [17]: 90 % of control

COc1ccc(/C=N\NC(=O)C(=O)N/N=C\c2ccc(OC)cc2)cc1
T/C (dose: 12.5 mg/kg/injection, schedule: Q01DX009 (ip), vehicle: distilled water + alcohol): 103 % of control
T/C (dose: 25.0 mg/kg/injection, schedule: Q01DX009 (ip), vehicle: distilled water + alcohol): 100 % of control
T/C (dose: 50.0 mg/kg/injection, schedule: Q01DX009 (ip), vehicle: distilled water + alcohol): 94 % of control
T/C (dose: 100.0 mg/kg/injection, schedule: Q01DX009 (ip), vehicle: distilled water + alcohol): 89 % of control
T/C (dose: 200.0 mg/kg/injection, schedule: Q01DX009 (ip), vehicle: distilled water + alcohol): 108 % of control

COC(=O)Nc1nc2ccc(C3(c4ccc(F)cc4)OCCO3)cc2[nH]1
T/C (dose: 25.0 mg/kg/injection, schedule: Q01DX009 (oral), vehicle: saline): 103 % of control
T/C (dose: 50.0 mg/kg/injection, schedule: Q01DX009 (oral), vehicle: saline): 119 % of control
T/C (dose: 50.0 mg/kg/injection, schedule: Q04DX003 (ip), vehicle: saline): 168 % of control
T/C (dose: 60.0 mg/kg/injection, schedule: Q04DX003 (ip), vehicle: saline): 155 % of control and 192 % of control
T/C (dose: 70.0 mg/kg/injection, schedule: Q04DX003 (ip), vehicle: saline): 208 % of control

O=S(=O)(CS(=O)(=O)Oc1ccccc1)Oc1ccccc1
T/C (dose: 100.0 mg/kg/injection, schedule: Q04DX002 (ip), vehicle: saline with Tween-80): 104 % of control
T/C (dose: 200.0 mg/kg/injection, schedule: Q04DX002 (ip), vehicle: saline with Tween-80): 96 % of control
T/C (dose: 400.0 mg/kg/injection, schedule: Q04DX002 (ip), vehicle: saline with Tween-80): 98 % of control

NC(=S)N/N=C/c1cc(Cl)ccc1O
T/C (dose: 100.0 mg/kg/injection, schedule: Q04DX003 (ip), vehicle: saline with Tween-80): 99 % of control
T/C (dose: 200.0 mg/kg/injection, schedule: Q04DX003 (ip), vehicle: saline with Tween-80): 98 % of control
T/C (dose: 400.0 mg/kg/injection, schedule: Q04DX003 (ip), vehicle: saline with Tween-80): 93 % of control

COc1ccc(/C(C#N)=C2\OC(=O)c3ccccc32)cc1OC
T/C (dose: 6.25 mg/kg/injection, schedule: Q01DX009 (ip), vehicle: saline with Tween-80): 97 % of control
T/C (dose: 12.5 mg/kg/injection, schedule: Q01DX009 (ip), vehicle: saline with Tween-80): 89 % of control
T/C (dose: 50.0 mg/kg/injection, schedule: Q01DX009 (ip), vehicle: saline with Tween-80): 90 % of control
T/C (dose: 400.0 mg/kg/injection, schedule: Q01DX009 (ip), vehicle: saline with Tween-80): 90 % of control

O=[N+]([O-])c1cccc(NC(c2ccccc2)S(=O)(=O)O)c1 (stereo not drawn)
T/C [12]: 104 % of control
T/C [13]: 114 % of control
T/C [17]: 106 % of control

CC1(C)N=C(N)N=C(N)N1c1cccc(CNC(=O)Nc2cccc(S(=O)(=O)F)c2)c1
T/C (dose: 44.0 mg/kg/injection, schedule: Q01DX009 (ip), vehicle: saline with Tween-80): 159 % of control
T/C [12]: 163 % of control
T/C (dose: 67.0 mg/kg/injection, schedule: Q01DX009 (ip), vehicle: saline with Tween-80): 163 % of control
T/C (dose: 100.0 mg/kg/injection, schedule: Q01DX009 (ip), vehicle: saline with Tween-80): 168 % of control

CC1(C)OC2OCC(N=[N+]=[N-])C(O)C2O1 (stereo not drawn)
T/C [14]: 113 % of control
T/C [15]: 101 % of control
T/C [16]: 92 % of control

O=C1c2ccccc2C(=O)N1/N=[N+](\[O-])c1ccccc1
T/C [4]: 105 % of control
T/C [5]: 88 % of control
T/C [6]: 106 % of control
T/C [7]: 110 % of control

O=C1C2C3C=CC(C2C(=O)N1COP(=O)(OCc1ccccc1)OCc1ccccc1)C1C2C(=O)N(COP(=O)(OCc4ccccc4)OCc4ccccc4)C(=O)C2C31 (stereo not drawn)
T/C (dose: 6.25 mg/kg/injection, schedule: Q01DX009 (ip), vehicle: saline + Tween-80 + alcohol): 99 % of control
T/C (dose: 12.5 mg/kg/injection, schedule: Q01DX009 (ip), vehicle: saline + Tween-80 + alcohol): 105 % of control
T/C (dose: 25.0 mg/kg/injection, schedule: Q01DX009 (ip), vehicle: saline + Tween-80 + alcohol): 103 % of control
T/C (dose: 50.0 mg/kg/injection, schedule: Q01DX009 (ip), vehicle: saline + Tween-80 + alcohol): 106 % of control
T/C (dose: 75.0 mg/kg/injection, schedule: Q01DX008 (ip), vehicle: saline + Tween-80 + alcohol): 109 % of control
T/C (dose: 100.0 mg/kg/injection, schedule: Q01DX009 (ip), vehicle: saline + Tween-80 + alcohol): 107 % of control
T/C (dose: 150.0 mg/kg/injection, schedule: Q01DX008 (ip), vehicle: saline + Tween-80 + alcohol): 99 % of control
T/C (dose: 300.0 mg/kg/injection, schedule: Q01DX008 (ip), vehicle: saline + Tween-80 + alcohol): 100 % of control
